In US9493444B2 (Merck Patent GmbH, priority 2012, dated 2016):

What follows are molecules tested on Wnt pathway (TCF-dependent transcription in HEK293 luciferase reporter cell line with ER-DSH construct) (assay: Cellular assay for Wnt pathway activity (luciferase reporter)). Conditions: Homo sapiens; Wnt pathway inhibition, HEK293 luciferase reporter cells (ER-DSH, TCF promoter), 24 hours incubation, estrogen-induced.
Assay type: cell-based
How it was run: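 Compounds (30 μM down to 1 nM) were incubated 24 h on cells induced for TCF-dependent transcription with estrogen. Luciferase activity was read by luminescence, normalized to untreated vehicle control, and fitted for IC50.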

Q: Which IC50 does the source give for `CN(CCCN(C)c1cncc(Oc2ccc(F)cc2)n1)C(=O)C(F)(F)F` [Compound 84, 2,2,2-Trifluoro-N-(3-{[6-(4-fluoro-phenoxy)-pyrazin-2-yl]-methyl-amino}-propyl)-N-methyl-acetamide] here?
A: The IC50 was 1 to 10 µM.

Q: How did the IC50 turn out when `CCOC(=O)Cc1ccc(Oc2cncc(N(C)CCN(C)C(C)=O)n2)cc1` [Compound 137, [4-(6-{[2-(Acetyl-methyl-amino)-ethyl]-methyl-amino}-pyrazin-2-yloxy)-phenyl]-acetic acid ethyl ester] was run?
A: The IC50 was < 0.2 µM.

Q: Which IC50 does the source give for `CC(=O)N(C)CCN(C)c1cncc(Oc2ccc(Br)cc2)n1` [Compound 37, N-(2-{[6-(4-Bromo-phenoxy)-pyrazin-2-yl]-methyl-amino}-ethyl)-N-methyl-acetamide] here?
A: Its IC50 is < 0.2 µM.

Q: How did the IC50 turn out when `COc1ccc(Oc2cncc(N(C)CCN(C)C(=O)C(F)(F)F)n2)cc1` [Compound 79, 2,2,2-Trifluoro-N-(2-{[6-(4-methoxy-phenoxy)-pyrazin-2-yl]-methyl-amino}-ethyl)-N-methyl-acetamide] was run?
A: Its IC50 is 1 to 10 µM.

Q: For `CC(=O)N(C)CCN(C)c1cncc(OC2CCCC2)n1` [Compound 43, N-{2-[(6-Cyclo-pentyloxy-pyrazin-2-yl)-methyl-amino]-ethyl}-N-methyl-acetamide], which IC50 is on record?
A: The IC50 was 1 to 10 µM.

Q: How did the IC50 turn out when `COc1ccc(Oc2cncc(NCC3CCCN3C(C)=O)n2)cc1` (centres unmarked) [Compound 57, 1-(2-{[6-(4-Methoxy-phenoxy)-pyrazin-2-ylamino]-methyl}-pyrrolidin-1-yl)-ethanone] was run?
A: The IC50 was 1 to 10 µM.

Q: Which IC50 does the source give for `COc1ccc(-c2ccc(Oc3cncc(CCCN(C)C(C)=O)n3)cc2)nc1` [Compound 221, N-(3-{6-[4-(5-Methoxy-pyridin-2-yl)-phenoxy]-pyrazin-2-yl}-propyl)-N-methyl-acetamide] here?
A: Its IC50 is 0.2 to 1 µM.

Q: With `COc1ccc(Oc2cncc(N(C)CCN(C)C(C)=O)n2)c(F)c1` [Compound 109, N-(2-{[6-(2-Fluoro-4-methoxy-phenoxy)-pyrazin-2-yl]-methyl-amino}-ethyl)-N-methyl-acetamide] as the molecule, how does the IC50 read?
A: Its IC50 is 0.2 to 1 µM.

Q: How did the IC50 turn out when `CC(=O)N(C)CCN(C)c1cncc(Oc2ccc(-c3cc4cc[nH]c4cn3)cc2)n1` [Compound 190, N-Methyl-N-[2-(methyl-{6-[4-(1H-pyrrolo[2,3-c]pyridin-5-yl)-phenoxy]-pyrazin-2-yl}-amino)-ethyl]-acetamide] was run?
A: Its IC50 is < 0.2 µM.

Q: For `CC(=O)N(C)CCN(C)c1cncc(Oc2ccc(C3CCCCC3)cc2)n1` [Compound 99, N-(2-{[6-(4-Cyclohexyl-phenoxy)-pyrazin-2-yl]-methyl-amino}-ethyl)-N-methyl-acetamide], which IC50 is on record?
A: The IC50 was 1 to 10 µM.

Q: How did the IC50 turn out when `CC(=O)N(C)CCN(C)c1cncc(Oc2ccc(N3CCN(C(C)=O)CC3)cc2)n1` [Compound 87, N-[2-({6-[4-(4-Acetyl-piperazin-1-yl)-phenoxy]-pyrazin-2-yl}-methyl-amino)-ethyl]-N-methyl-acetamide] was run?
A: Its IC50 is 0.2 to 1 µM.

Q: `CC(=O)N(C)CCN(C)c1cncc(Oc2ccc(-c3nc4cc(C#N)ccc4[nH]3)cc2)n1` [Compound 124, N-[2-({6-[4-(5-Cyano-1H-benzo-imidazo-2-yl)-phenoxy]-pyrazin-2-yl}-methyl-amino)-ethyl]-N-methyl-acetamide] was tested. Which IC50 did it give?
A: The IC50 was 0.2 to 1 µM.

Q: How did the IC50 turn out when `CC(=O)N(C)CCN(C)c1cncc(Oc2ccc(CC#N)cc2)n1` [Compound 142, N-(2-{[6-(4-Cyano-methyl-phenoxy)-pyrazin-2-yl]-methyl-amino}-ethyl)-N-methyl-acetamide] was run?
A: The IC50 was < 0.2 µM.

Q: For `O=C1CCCCN1CCNc1cncc(Oc2ccc(-c3ccc(N4CCOCC4)nc3)cc2)n1` [Compound 295, 1-(2-{6-[4-(6-Morpholin-4-yl-pyridin-3-yl)-phenoxy]-pyrazin-2-ylamino}-ethyl)-piperidin-2-one], which IC50 is on record?
A: The IC50 was < 0.2 µM.
